Measurements: PubChem BioAssay (NCI)
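Protocol summary: plate cells (96-well), add compound at 5 concentrations, incubate 48 h, interpolate endpoints linearly. TGI denotes the concentration required for complete inhibition of growth.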

Legend:
Assay in all cases: NCI anticancer screen, dose series, 48 h
UACC-62 melanoma = system: UACC-62 melanoma
MCF7 breast = system: MCF7 breast
HS 578T breast = system: HS 578T breast
LOX IMVI melanoma = system: LOX IMVI melanoma
NCI-H522 lung = system: NCI-H522 lung
SN12C renal = system: SN12C renal
NCI/ADR-RES ovarian = system: NCI/ADR-RES ovarian
SK-MEL-28 melanoma = system: SK-MEL-28 melanoma
RPMI-8226 leukemia = system: RPMI-8226 leukemia
HCT-15 colon = system: HCT-15 colon
HCT-116 colon = system: HCT-116 colon
HOP-92 NSCLC = system: HOP-92 NSCLC
MDA-MB-435 = system: MDA-MB-435
SF-268 CNS = system: SF-268 CNS
DU-145 prostate = system: DU-145 prostate
MDA-N = system: MDA-N
M14 melanoma = system: M14 melanoma
U251 CNS = system: U251 CNS
ACHN renal = system: ACHN renal
SNB-19 CNS = system: SNB-19 CNS
HOP-62 NSCLC = system: HOP-62 NSCLC
IGROV1 ovarian = system: IGROV1 ovarian
SF-539 CNS = system: SF-539 CNS
KM12 colon = system: KM12 colon
SK-OV-3 ovarian = system: SK-OV-3 ovarian
MALME-3M melanoma = system: MALME-3M melanoma
CAKI-1 renal = system: CAKI-1 renal
OVCAR-3 ovarian = system: OVCAR-3 ovarian
SW-620 colon = system: SW-620 colon
PC-3 prostate = system: PC-3 prostate
A549 NSCLC = system: A549 NSCLC
SNB-75 CNS = system: SNB-75 CNS
HT29 colon = system: HT29 colon
MDA-MB-231 breast = system: MDA-MB-231 breast
OVCAR-4 ovarian = system: OVCAR-4 ovarian
TK-10 renal = system: TK-10 renal
T-47D breast = system: T-47D breast
NCI-H23 lung = system: NCI-H23 lung
SR leukemia = system: SR leukemia
SF-295 CNS = system: SF-295 CNS
HCC-2998 colon = system: HCC-2998 colon
UACC-257 melanoma = system: UACC-257 melanoma
HL-60(TB) leukemia = system: HL-60(TB) leukemia
MOLT-4 leukemia = system: MOLT-4 leukemia
COLO 205 colon = system: COLO 205 colon
BT-549 breast = system: BT-549 breast
OVCAR-8 ovarian = system: OVCAR-8 ovarian
K-562 leukemia = system: K-562 leukemia
786-0 renal = system: 786-0 renal
SK-MEL-5 melanoma = system: SK-MEL-5 melanoma

Measured: TGI

Cc1nn(-c2ccccc2)c2c1N=C(C(=O)O)CC(c1ccccc1)=N2
> 10 µM: all assays above
